Common to all, as to format: cell-based
The target in experiment [1] is T1, human GPR40 (Homo sapiens, UniProt O14842).
T1 construct: expressed in transfected cells
The experiment in a line: GPR40 calcium flux assay, human GPR40. To be noted: HEK293 cells stably expressing GPR40; table does not say human or rat. Summed up: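 Cells preincubated 1 h at 37° C. in HBSS, 20 mM HEPES, 0.1% BSA, then Fluo 8 calcium dye 30 min at 37° C. and 15 min at room temperature.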
(Calcium flux is commonly read through the fluorescence of an indicator in the cells.)

The target of experiment [2] is T2, long form of human GPR120 (Homo sapiens, UniProt Q5NUL3).
T2 construct: host or cells: PathHunter CHO-K1 GPR120 β-Arrestin Cell Line
The experiment in a line: Human GPR120 DiscoveRx PathHunter Beta-Arrestin assay, Procedure β-arrestin A. Summed up:
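PathHunter CHO-K1 cells expressing long-form human GPR120 (3000/well) were seeded overnight. They were then preincubated 60 min in HBSS with 20 mM HEPES and 0.1% BSA, pH 7.4, and exposed to compound for 90 min at 37 °C. β-Arrestin recruitment was read as β-gal complementation luminescence. EC50 came from % activity versus positive control, Hill slope fixed at 1.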

Experiment [3] deals with T3, Human GPR120 short form (Homo sapiens, UniProt Q5NUL3).
T3 construct: expressed in transfected cells
T3 sequence (Q5NUL3 1-361): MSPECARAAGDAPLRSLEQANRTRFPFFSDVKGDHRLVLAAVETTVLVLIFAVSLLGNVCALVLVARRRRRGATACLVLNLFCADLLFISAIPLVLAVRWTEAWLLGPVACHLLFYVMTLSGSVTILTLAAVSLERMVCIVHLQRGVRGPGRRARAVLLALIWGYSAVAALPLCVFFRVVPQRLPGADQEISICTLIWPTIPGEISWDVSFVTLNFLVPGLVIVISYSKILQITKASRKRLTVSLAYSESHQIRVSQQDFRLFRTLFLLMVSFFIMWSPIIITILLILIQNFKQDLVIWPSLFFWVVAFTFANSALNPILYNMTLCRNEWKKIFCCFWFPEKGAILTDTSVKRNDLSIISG
The experiment in a line: Human GPR120 calcium flux assay, Procedure Calcium B (4200 cells/well). In outline:
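HEK293 cells stably expressing human GPR120 (NM_001195755.1), 4200 cells/well, starved 1 h and loaded with Fluo-4 NW plus probenecid. Ligand-evoked calcium flux read on FLIPR for 300 s after a 10 s baseline. RFU = Fmax−Fmin; EC50 from four-parameter concentration-response fit.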

Each structure is given as a SMILES string. pEC50: −log10 of the molar value. Where only a bound is given, the exact number is not on record here.

T1 sequence (O14842 whole entry): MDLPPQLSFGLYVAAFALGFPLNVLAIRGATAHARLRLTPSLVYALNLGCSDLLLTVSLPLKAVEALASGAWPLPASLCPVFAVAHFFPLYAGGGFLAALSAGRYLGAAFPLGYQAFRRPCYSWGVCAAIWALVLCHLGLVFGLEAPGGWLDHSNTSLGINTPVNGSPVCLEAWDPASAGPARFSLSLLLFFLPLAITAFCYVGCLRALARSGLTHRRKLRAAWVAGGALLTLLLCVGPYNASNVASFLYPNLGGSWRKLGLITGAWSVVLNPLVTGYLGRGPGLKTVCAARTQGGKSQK
T2 sequence (Q5NUL3 1-377 isoform Q5NUL3-1): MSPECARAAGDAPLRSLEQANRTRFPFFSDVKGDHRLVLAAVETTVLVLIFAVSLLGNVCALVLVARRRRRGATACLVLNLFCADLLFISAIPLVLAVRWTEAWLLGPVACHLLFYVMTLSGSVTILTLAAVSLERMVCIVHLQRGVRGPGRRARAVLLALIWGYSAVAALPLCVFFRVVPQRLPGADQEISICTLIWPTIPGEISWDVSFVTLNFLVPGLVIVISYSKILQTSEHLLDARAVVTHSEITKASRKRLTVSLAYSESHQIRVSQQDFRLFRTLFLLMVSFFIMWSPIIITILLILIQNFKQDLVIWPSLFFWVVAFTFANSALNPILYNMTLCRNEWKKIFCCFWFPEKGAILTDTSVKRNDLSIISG
T2 sequence (P32121 whole entry partner): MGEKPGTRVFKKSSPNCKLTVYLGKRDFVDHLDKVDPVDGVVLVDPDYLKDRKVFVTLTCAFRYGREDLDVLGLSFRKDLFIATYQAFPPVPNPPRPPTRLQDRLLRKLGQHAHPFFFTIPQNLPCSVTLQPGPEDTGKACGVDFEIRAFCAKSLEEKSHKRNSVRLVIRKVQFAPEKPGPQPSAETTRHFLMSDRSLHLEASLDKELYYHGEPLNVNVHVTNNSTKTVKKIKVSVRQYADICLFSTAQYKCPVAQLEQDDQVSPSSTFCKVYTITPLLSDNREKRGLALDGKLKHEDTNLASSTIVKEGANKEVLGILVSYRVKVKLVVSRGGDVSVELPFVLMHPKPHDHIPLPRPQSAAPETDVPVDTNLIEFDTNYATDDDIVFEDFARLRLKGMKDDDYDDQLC

Consider `COC1CC(COc2c(F)cc(CCC(=O)O)cc2F)=C(c2ccc(Cl)cc2)C1` (stereo not drawn) [Compound 187, 3-[4-[[2-(4-chlorophenyl)-4-methoxy-cyclopenten-1-yl]methoxy]-3,5-difluoro-phenyl]Propanoic Acid], for which the pEC50 was 5.48 in experiment [1], 6.22 in experiment [2] and 6.86 in experiment [3].

With `Cc1cc(CCC(=O)O)ccc1OCC1=C(c2ccc(Cl)cc2)CC(F)(F)CC1` [Compound 566, 3-[4-[[2-(4-chlorophenyl)-4,4-difluoro-cyclohexen-1-yl]methoxy]-3-methyl-phenyl]Propanoic Acid], the pEC50 in experiment [1] is 5.48; in experiment [2], 6.68; in experiment [3] it was 6.78.

As to `Cc1ncc(C2=C(COc3ccc(CCC(=O)O)c(C)c3C)CC(F)(F)CC2)s1` [Compound 553, 3-[4-[[5,5-difluoro-2-(2-methylthiazol-5-yl)cyclohexen-1-yl]methoxy]-2,3-dimethyl-phenyl]Propanoic Acid], the values for the pEC50 in experiment [1], in experiment [2] and in experiment [3] were 5.63, 6.14 and 6.28, respectively.

Regarding `Cc1c(CCC(=O)O)ccc(OCC2=C(c3ccc(F)cc3)CC(F)(F)C2)c1C` [Compound 10], the pEC50 in experiment [1] was less than 5.30; in experiment [2] it was 6.81; in experiment [3], 7.62.

Turning to `O=C(O)CCc1cc(F)c(OCC2=C(c3ccc(F)c(F)c3)CC(F)(F)C2)c(F)c1` [Compound 184, 3-[4-[[2-(3,4-difluorophenyl)-4,4-difluoro-cyclopenten-1-yl]methoxy]-3,5-difluoro-phenyl]Propanoic Acid], the pEC50 is less than 5.30 in experiment [1], 6.37 in experiment [2] and 7.04 in experiment [3].

Consider `O=C(O)CCc1ccc(OCC2=C(c3ccc(F)cc3)CC(F)C2)cc1C(F)(F)F` (stereo not drawn) [Compound 186, 3-[4-[[4-fluoro-2-(4-fluorophenyl)cyclopenten-1-yl]methoxy]-2-(trifluoromethyl)phenyl]Propanoic Acid], for which the pEC50 was 6.42 in experiment [1], 5.75 in experiment [2] and 6.34 in experiment [3].

Consider `CCOc1ccc(C2=C(COc3c(F)cc(CCC(=O)O)cc3F)CCC2)cn1` [Compound 226, 3-[4-[[2-(6-ethoxy-3-pyridyl)cyclopenten-1-yl]methoxy]-3,5-difluoro-phenyl]Propanoic Acid], for which the pEC50 was less than 5.30 in experiment [1], 5.89 in experiment [2] and 6.14 in experiment [3].

With `O=C(O)CCc1ccc(OCC2=C(c3ccc(F)cc3)CC(F)(F)C2)cc1` [Compound 228, 3-[4-[[4,4-difluoro-2-(4-fluorophenyl)cyclopenten-1-yl]methoxy]phenyl]Propanoic Acid], the pEC50 in experiment [1] is 5.31; in experiment [2], 6.62; in experiment [3], 6.91.

As to `CCC1CCC(COc2ccc(CCC(=O)O)c(C)c2C)=C(c2ccc(Cl)cc2)C1` (stereo not drawn) [Compound 522, 3-[4-[[2-(4-chlorophenyl)-4-ethyl-cyclohexen-1-yl]methoxy]-2,3-dimethyl-phenyl]Propanoic Acid], the figures for the negative-log EC50 (pEC50) in experiment [1], in experiment [2] and in experiment [3] were less than 5.30, 6.07 and 6.15, respectively.

As for `Cc1cc(CCC(=O)O)ccc1OCC1=C(c2cccs2)CCC(F)(F)C1` [Compound 560, 3-[4-[[5,5-difluoro-2-(2-thienyl)cyclohexen-1-yl]methoxy]-3-methyl-phenyl]Propanoic Acid], the results for the pEC50 in experiment [1], in experiment [2] and in experiment [3] were 5.39, 6.76 and 6.93, respectively.

As to `O=C(O)CCc1ccc(OCC2=C(c3ccc(F)cc3)CCC(F)(F)C2)cc1` [Compound 499, 3-[4-[[5,5-difluoro-2-(4-fluorophenyl)cyclohexen-1-yl]methoxy]phenyl]Propanoic Acid], the results for the pEC50 in experiment [1], in experiment [2] and in experiment [3] were less than 5.30, 6.88 and 6.67, respectively.

`Cc1cc(CCC(=O)O)ccc1OCC1=C(c2cnn(C)c2)CCC(F)(F)C1` [Compound 546, 3-[4-[[5,5-difluoro-2-(1-methylpyrazol-4-yl)cyclohexen-1-yl]methoxy]-3-methyl-phenyl]Propanoic Acid]: the pEC50 in experiment [1] is 5.63; in experiment [2] it was 5.78; in experiment [3] it was 6.12.

In general, pEC50 refers to the negative decadic logarithm of the EC50, by convention in mol/L.

The values are drawn from patent US11230526B1, “Cylcoalkenyl derivatives useful as agonists of the GPR120 and/or GPR40 receptors” (Janssen Pharmaceutica NV, priority 2018, dated 2022).
